{"source": "patent US20220218715A1", "about": "“NOVEL USE OF PYRROLO-PYRIDINE DERIVATIVE COMPOUND FOR PREVENTION AND/OR TREATMENT OF CANCER” (VORONOI CO., LTD., priority 2019, published 2022)", "system": "PC-9 lung cancer cells", "experiment": "Anticancer effect in mouse model with PC-9 lung cancer cells", "type": "in vivo, Balb/c Nude Mice", "conditions": "PC-9 model; singular treatment with EGFR targeting drug, PO QD (Gefitinib 10 mg/kg, Osimertinib 3 mg/kg)", "protocol": "The PC-9 cell line was purchased from NanJing Cobioer Biological Technology Co., Ltd. Cells were kept in RPMI-1640 containing 10% FBS, and cultured in a 37° C. humidified cell culture incubator at 5% […]. All animal experiments were carried out according to the Animal Use and Management Guidelines of Shanghai Medicilon Inc. Under sterile conditions, 2×10^6 PC-9 tumor cells (0.1 mL, cell:Matrigel®=1:1) was administered to the right waist of each animal by S.C. administration. Tumor size and animal body weight were measured twice weekly, and clinical symptoms were recorded daily. The mice will be administered individually according to most recent body weight. The tumors were measured using calipers using two measurements, length (a) and width (b). The volume of the tumors was calculated individually as follows, from the two measured diameters of the tumors: tumor volume (mm^3)=(a×b^2)/2."}
{"smiles": "COc1cc2ncnc(Nc3ccc(F)c(Cl)c3)c2cc1OCCCN1CCOCC1", "note": "[Gefitinib, reference compound]", "values": [{"measurement": "cancer cell regrowth during treatment", "value": "early regrowth of cancer cells was observed"}]}
